Experimental data published in US8367340B2, “Prognostic tools to predict the efficacy of drug treatment targeting chromatin DNA or enzymes acting on DNA” (University of Maryland, Baltimore, priority 2008, dated 2013).

Test system: c-myc P2 promoter
Assay: PCR-Stop assay with real time PCR on genomic DNA of drug-treated RKO colon cancer cells
Type: cell-based, human
Details: 10 ng/ml TSA 4 h followed by 25 μM VP16 1 h, compared to the reverse combination and the single drug treatments
Text: Top2 inhibitors induce preferential damage within the c-myc locus and more particularly within the P2 promoter of c-myc. […] By way of non-limiting example, the 3′ end region may be amplified using the following primers of the human c-myc gene: Forward: 5′[…]3′ [SEQ ID NO: 1], Reverse: 5′[…]3′ [SEQ ID NO:2]. Other suitable primers may be used, as would be apparent to those skilled in the art.
According to example embodiments, a comparative threshold (Ct) method may be used to quantify the results obtained by the real-time RT-PCR. The comparative Ct method involves comparing the Ct values of the samples of interest with a control or calibrator such as a non-treated sample from normal tissue. The Ct values of both the calibrator and the samples of interest are normalized to an appropriate endogenous housekeeping gene. Non-limiting example quantification methods include identifying the cycle number at which the reporter dye emission intensities rises above background noise: this cycle number is called the threshold number (Ct). The Ct is proportional to the breaks introduced in the target template; the higher the amount of breakage in the given target template, the higher the Ct measured.
By way of non-limiting example, the 3′ region of c-myc gene that has no type II topoisomerase cleavage site may be used as a reference. […]

## COc1cc([C@@H]2c3cc4c(cc3[C@@H](O[C@@H]3O[C@@H]5CO[C@@H](C)O[C@H]5[C@H](O)[C@H]3O)[C@H]3COC(=O)[C@H]23)OCO4)cc(OC)c1O [VP16, etoposide]
  percentage of breaks at c-myc locus (type II topoisomerase mediated DNA breaks in c-myc P2 promoter): considerably higher percentage of breaks
